One data set deals with Serum cholesterol. The data set is described as follows: Serum cholesterol analysis in ovariectomized rats (4-day oral dosing). The following applies: for Serum Cholest. % Dec. (decrease versus ovariectomized controls): daily for 4 days, * p < .05. The class given is in vivo, rat (female Sprague Dawley. How it is done: (§1) In the examples illustrating the methods, a postmenopausal model was used in which effects of different treatments upon circulating lipids were determined.
(§2) Seventy-five day old female Sprague Dawley rats (weight range of 200 to 225 g) were obtained from Charles River Laboratories (Portage, Mich.). The animals were either bilaterally ovariectomized (OVX) or exposed to a sham surgical procedure at Charles River Laboratories, and then shipped after one week. Upon arrival, they were housed in metal hanging cages in groups of 3 or 4 per cage and had ad libitum access to food (calcium content approximately 0.5%) and water for one week. Room temperature was maintained at 22.2°±1.70° C. with a minimum relative humidity of 40%. The photoperiod in the room was 12 hours light and 12 hours dark.
Dosing Regimen Tissue Collection. After a one week acclimation period (therefore, two weeks post-OVX) daily dosing with test compound was initiated. 17α-ethynyl estradiol or the test compound were given orally, unless otherwise stated, as a suspension in 1% carboxymethylcellulose or dissolved in 20% cyclodextrin. Animals were dosed daily for 4 days. Following the dosing regimen, animals were weighed and anesthetized with a ketamine:xylazine (2:1, V:V) mixture and a blood sample was collected by cardiac puncture. The animals were then sacrificed by asphyxiation with CO2, the uterus was removed through a midline incision, and a wet uterine weight was determined.
Cholesterol Analysis. Blood samples were allowed to clot at room temperature for 2 hours, and serum was obtained following centrifugation for 10 minutes at 3000 rpm. Serum cholesterol was determined using a Boehringer Mannheim Diagnostics high performance cholesterol assay. Briefly the cholesterol was oxidized to cholest-4-en-3-one and hydrogen peroxide. The hydrogen peroxide was then reacted with phenol and 4-aminophenazone in the presence of peroxidase to produce a p-quinone imine dye, which was read spectrophotemetrically at 500 nm. Cholesterol concentration was then calculated against a standard curve.
Data presented in Table 1 below show comparative results among ovariectomized rats, rats treated with 17α-ethynyl estradiol (EE2; an orally available form of estrogen), and rats treated with certain compounds of the instant invention. […] This uterine response to estrogen is well recognized in the art.
The data presented in Table 1 below reflects the response of 5 to 6 rats per treatment.

Another data set relates to uterus. Further details: species or system rat (female Sprague Dawley, ovariectomized). The following applies: rat, in vivo, po, 0.1 mg/kg/day. On the procedure: as §1, §2
Dosing Regimen Tissue Collection. After a one week acclimation period (therefore, two weeks post-OVX) daily dosing with test compound was initiated. 17α-ethynyl estradiol or the test compound were given orally, unless otherwise stated, as a suspension in 1% carboxymethylcellulose or dissolved in 20% cyclodextrin. Animals were dosed daily for 4 days. […] The animals were then sacrificed by asphyxiation with CO2, the uterus was removed through a midline incision, and a wet uterine weight was determined. […]

Another data set has as its system Eosinophil peroxidase. More on the design: species or system rat (female Sprague Dawley, ovariectomized). The following applies: rat, in vivo.
Excerpt: as §2
Dosing Regimen Tissue Collection. […] The animals were then sacrificed by asphyxiation with CO2, the uterus was removed through a midline incision, and a wet uterine weight was determined.
Uterine Eosinophil Peroxidase (EPO) Assay. […] Upon addition of 0.01% hydrogen peroxide and 10 mM O-phenylenediamine (final concentrations) in Tris buffer, increase in absorbance was monitored for one minute at 450 nm. […] The maximal velocity of a 15 second interval was determined over the initial, linear portion of the reaction curve.
As is expressed in the data below, estrogenicity also was assessed by evaluating the adverse response of eosinophil infiltration into the uterus. […]

In another data set the test system is femur density. The data set is described as follows: Osteoporosis Test Procedure (femur density, ovariectomized rats). Type of data set: in vivo, rat. The following applies: orally administered. How it is done:
Following the General Preparation Procedure, infra, the rats are treated daily for 35 days (6 rats per treatment group) and sacrificed by carbon dioxide asphyxiation on the 36th day. The 35 day time period is sufficient to allow maximal reduction in bone density, measured as described herein. At the time of sacrifice, the uteri are removed, dissected free of extraneous tissue, and the fluid contents are expelled before determination of wet weight in order to confirm estrogen deficiency associated with complete ovariectomy. […] The uteri are then placed in 10% neutral buffered formalin to allow for subsequent histological analysis. The right femurs are excised and digitilized x-rays generated and analyzed by an image analysis program (NIH image) at the distal metaphysis. The proximal aspect of the tibiae from these animals are also scanned by quantitative computed tomography. In accordance with the above procedures, compounds of the instant invention and ethynyl estradiol (EE2) in 20% hydroxypropyl β-cyclodextrin are orally administered to test animals. Distal femur metaphysis and proximal tibiae data are compared to intact and ovariectomized test animals. Results are reported as percent protection relative to ovariectomy. Ovariectomy of the test animals causes a significant reduction in femur density compared to intact, vehicle treated controls. […]

[1] abbreviates: 0.1 mg/kg PO, negative = increase.

Turning to `Cl.c1ccc2c(Oc3ccc(OCCN4CCCCC4)cc3)c(C3CCCCC3)sc2c1` [Example 11, 3-[4-[2-(1-Piperidinyl)ethoxy]phenoxy]-2-cyclohexylbenzo[b]thiophene Hydrochloride], the “Serum Cholest. % Dec. (decrease versus ovariectomized controls)” value with Serum cholesterol (setting [1]) is given as 55.8%; in the data set on Serum cholesterol (1.0 mg/kg PO), 58.9%; with Serum cholesterol (10.0 mg/kg PO), 50.2%.
Taken in the same sequence, the figures for `CC(C)c1sc2ccccc2c1Oc1ccc(OCCN2CCCCC2)cc1.Cl` [Example 4, 3-[4-[2-(1-Piperidinyl)ethoxy]phenoxy]-2-(2-propyl]benzo[b]thiophene Hydrochloride] were -27.6%, 19.2% and 61.6%.
On the same counts, the results for `CCCc1sc2ccccc2c1Oc1ccc(OCCN2CCCCC2)cc1.Cl` [Example 7, 3-[4-[2-(1-Piperidinyl)ethoxy]phenoxy]-2-propylbenzo[b]thiophene Hydrochloride] are -11.1%, 41.2% and 46.6%.
As to `C#C[C@]1(O)CC[C@H]2[C@@H]3CCc4cc(O)ccc4[C@H]3CC[C@@]21C` [EE2, 17α-ethynyl estradiol, reference compound], the “uterine weight (in words)” value in the data set with uterus is listed as “substantially greater than the uterine weight of ovariectomized test animals”. Besides, in the data set on Eosinophil peroxidase, the “Uterine Eosinophil (Vmax), eosinophil peroxidase” value was 212.4 and the “eosinophil infiltration into the uterus (in words)” value is on record as “substantial, expected increase in eosinophil infiltration”. Moreover, the “Serum Cholest. % Dec. (decrease versus ovariectomized controls)” value in the data set on Serum cholesterol (setting [1]) was determined as 76.6%. The “serum cholesterol (in words)” value in the data set on Serum cholesterol (oral, versus ovariectomized control animals, EE2 at 0.1 mg/kg/day) is on record as “caused a decrease in serum cholesterol”. The “loss of femur density after ovariectomy (in words)” value in the data set on femur density was “prevents this loss”.

The values above are taken from US5985897A, “Benzothiphene compounds, intermediates, compositions, and methods” (priority 1997, dated 1999).
